Assay results from patent US20250276973A1, “CRYSTAL OF 7H-PYRROLO[2,3-D]PYRIMIDINE-4-AMINE DERIVATIVE” (TAIHO PHARMACEUTICAL CO., LTD., priority 2022, published 2025).
Like-named read-outs stand apart in the source and are kept apart here.

How the values were obtained:
[1] = Solid stability test (4 weeks of storage at 80° C., closed system; HPLC); type: physicochemical; conditions: for Chemical purity after 4 weeks of storage at 80° C. / Solid stability (result in words): 80° C. (closed system), 4 weeks; for Chemical purity after 4 weeks of storage at 80° C.: glass bottle; for Chemical purity after 4 weeks of storage at 80° C. / Chemical purity before storage: HPLC; for Solid stability (result in words): related substances by HPLC; for Change (chemical purity): after 4 weeks at 80° C. versus before storage; for Chemical purity before storage: UV 220
Description: The solid stability of the type II crystal of Compound (1) in free form, the type III crystal of Compound (1) in free form, the type VII crystal of Compound (1) in free form, and the type VIII crystal of Compound (1) in free form obtained in the examples, reference example, and comparative example were evaluated after 4 weeks of storage by the following procedure. • Storage conditions: 80° C. (closed system) (HIFLEX (high-temperature storage chamber manufactured by ETAC)) • Storage period: 4 weeks • Storage volume: Approximately 30 mg • Storage container: Glass bottle
Changes in the mass of the related substances (the amounts of detected substances other than Compound (1)) were analyzed by HPLC according to the following method. Approximately 8 mg of each sample was weighed and dissolved in I mL of a chloroform-methanol mixture (1:1 v/v). Fifty μL of this solution was measured and diluted with 950 μL of an acetonitrile-water mixture (7:3), and 5 μL of the resulting solution was accurately measured and used as the sample for the analysis.
The mass of the related substances in the sample solution was determined by HPLC analysis. The instrument, including data processing, was handled in accordance with the method and procedure indicated for each instrument. • Column: InertSustainSwift C18 (2.1×50 mm, 1.9 μm) manufactured by GL Sciences • UV detection: […] • Column temperature: 40° C. • Flow rate: 0.3 mL/min • Sample cooler: 10° C. • Sample concentration: 0.1 mg/mL • Mobile phase A: 10 mmol/L phosphate buffer (pH 6.8)/acetonitrile (95:5) mixture • Mobile phase B: Acetonitrile • The gradients are shown in Table 4.
The solid stability of the type III crystal of Compound (1) with succinic acid, the type I crystal of Compound (1) with citric acid, the type IV crystal of Compound (1) with citric acid, the type I crystal of Compound (1) with sorbic acid, and the type I crystal of Compound (1) with phosphoric acid obtained in the examples, reference example, and comparative examples were evaluated after 4 weeks of storage. The evaluation method, storage, and measurement conditions were as described in Test Example 1.

[2] = Dynamic vapor sorption (DVS) test; type: physicochemical; conditions: 25° C.; for Hygroscopicity (result in words): 5 to 95% RH; for Weight increase under 95% relative humidity: 95% RH
Description: Vapor sorption tests were performed using the type II crystal of Compound (1) in free form, the type III crystal of Compound (1) in free form, the type VII crystal of Compound (1) in free form, and the type VIII crystal of Compound (1) in free form obtained in the examples, reference example, and comparative example.
Vapor sorption tests were conducted under the following conditions.
Approximately 10 mg of the sample was filled into a specialized quartz holder to continuously measure and record the weight of the sample at each humidity was under the following conditions. The instrument, including data processing, was handled in accordance with the method and procedure indicated for each instrument. • Instrument: VTI-SA+(manufactured by TA Instruments) • Drying temperature: 60° C. • Heating rate: 1° C./min • Equilibration of drying: Confirmation of no more than 0.01 wt % decrease in 5 minutes within a period not exceeding 300 minutes • Measurement temperature: 25° C. • Equilibration of humidification: Confirmation of no more than 0.01 wt % increase in 5 minutes within a period not exceeding 120 minutes • Relative humidity program: Increase from 5 to 95% RH in increments of 5% RH, and decrease from 95% to 5% RH in increments of 5% RH. • Changes in the weight over the range of the measurement conditions obtained in these tests are shown in FIGS. 9 through 12.
Vapor sorption tests were performed using the type III crystal of Compound (1) with succinic acid, the type I crystal of Compound (1) with citric acid, the type IV crystal of Compound (1) with citric acid, the type I crystal of Compound (1) with sorbic acid, and the type I crystal of Compound (1) with phosphoric acid obtained in the examples, reference example, and comparative examples.
Vapor sorption tests were conducted under the same conditions as in Test Example 2.

[3] = Plasma concentration determination test after oral administration; type: in vivo; conditions: male beagle dogs, gelatin capsule, 20 mg/kg in terms of free form, hypochlorhydria conditions, three dogs
Description: The Compound (1) in free form (type II crystal), the type III crystal of Compound (1) with one equivalent of succinic acid, and the type I crystal of Compound (1) with one equivalent of sorbic acid obtained in the examples were tested for plasma concentrations in male beagle dogs after oral administration under hypochlorhydria conditions.
In order to select three male beagle dogs for the test, plasma concentrations were determined in five male beagle dogs under hypochlorhydria conditions after administration in a solution form and administration in a capsule-filled form. Three dogs with larger differences in AUClast (area under the plasma concentration-time curve from 0 hours after administration to the point at which the final concentration can be calculated by the linear trapezoidal method before Tmax and by the log-trapezoidal method after Tmax) and Cmax (maximum plasma concentration) between the administration in the solution form and the administration in the capsule-filled form were selected. Subsequently, tests were conducted to determine plasma concentrations in them after oral administration of the Compound (1) in free form (type II crystal), the type III crystal of Compound (1) with one equivalent of succinic acid, and the type I crystal of Compound (1) with one equivalent of sorbic acid in capsule-filled forms. The following procedures were employed for the preparation of a liquid dosage, capsule filling, and animal experiments.
Compound (1) in free form was dissolved in a 20% HP-β-CD solution containing 0.1N hydrochloric acid to prepare a solution of 20 mg/5 mL. Compound (1) in free form (type II crystal), the type III crystal of Compound (1) with one equivalent of succinic acid, and the type I crystal of Compound (1) with one equivalent of sorbic acid were each filled into a gelatin capsule at 20 mg/kg in terms of the molecular weight of Compound (1) (free form).
The male beagle dogs selected for the study were fasted starting between 11:00 a.m. to 12:00 p.m. on the day before Compound (1) was administered and fed after blood was collected 8 hours after the administration of the compound. The dogs were not allowed to drink water from 30 minutes before to 2 hours after the administration of the compound, but were allowed to drink freely at other time.
Intravenous administration of atropine (atropine sulfate injection 0.5 mg “Fuso”) at a dose of 0.02 mg/kg was followed by intramuscular administration of pentagastrin at a dose of 0.01 mg/kg 30 minutes prior to the administration of the compound. Thirty minutes after the administration of atropine, the dogs were orally force-fed a capsule filled with the compound, encouraged to self-swallow the capsule with 5 mL of distilled water, and further orally force-fed 50 mL of distilled water using a catheter. Alternatively, the compound dissolved in liquid dosage was administered orally via a catheter at a dose of 20 mg/5 mL/kg, and the catheter was immediately rinsed with 10 mL of distilled water.
Pentagastrin was again intramuscularly administered at 0.01 mg/kg 15 minutes and 1 hour after the administration of the compound.
Before and after (0.25, 0.5, 1, 2, 4, 6, 8, and 24 hours after) the administration, the person in charge of collecting blood held the dog's forelimb to distend the blood vessel using a clothespin or the like. Then, the blood collection site was disinfected with alcohol cotton, and about 0.2 mL of blood was collected using a heparinized syringe and needle. After the blood was drawn, the puncture site was pressed with a cotton pad to adequately stop bleeding. The collected blood samples were ice-cooled, and plasma was isolated by centrifugation as soon as possible. The isolated plasma was immediately frozen on dry ice and then stored frozen in a freezer set at −80° C. […]

[4] = male, beagle, dog, plasma, po, 20 mg/kg

SMILES | Chemical purity after 4 weeks of storage at 80° C. [1] [%] | Solid stability (result in words) [1] | Change (chemical purity) [1] | Chemical purity before storage [1] [%] | Hygroscopicity (result in words) [2] | Weight increase under 95% relative humidity [2] [%] | AUClast [3] [µM·h] | Cmax [3] [nM] | tmax [3] [h] | AUC(0-t) [3, 4] [µM·h] | Cmax [3, 4] [nM] | tmax ([3]; male, beagle, dog, plasma, po, 20 mg/kg, read-out: tmax) [h]
C#Cc1c(-c2cnc3ccccc3c2)c2c(N)ncnc2n1C12CCC(NC(=O)c3cnc(C)cn3)(CC1)C2 [Type I crystal of Compound (1) with sorbic acid] [N-(4-(4-amino-6-ethynyl-5-(quinolin-3-yl)-7H-pyrrolo[2,3-d]pyrimidin-7-yl)bicyclo[2.2.1]heptan-1-yl)-5-methylpyrazine-2-carboxamide] | 99.72 | extremely stable crystals with almost no increase in the related substances | −0.02% | 99.74 | hardly hygroscopic | 0.26 | 18.1 ± 13.1 | 1680 ± 880 | 6.0 ± 2.0 |  |  | 
C#Cc1c(-c2cnc3ccccc3c2)c2c(N)ncnc2n1C12CCC(NC(=O)c3cnc(C)cn3)(CC1)C2 [N-(4-(4-amino-6-ethynyl-5-(quinolin-3-yl)-7H-pyrrolo[2,3-d]pyrimidin-7-yl)bicyclo[2.2.1]heptan-1-yl)-5-methylpyrazine-2-carboxamide] |  |  |  |  |  |  |  |  |  | 13 ± 4 | 1260 ± 90 | 4
C#Cc1c(-c2cnc3ccccc3c2)c2c(N)ncnc2n1C12CCC(NC(=O)c3cnc(C)cn3)(CC1)C2 [Type III crystal of Compound (1) with succinic acid] [N-(4-(4-amino-6-ethynyl-5-(quinolin-3-yl)-7H-pyrrolo[2,3-d]pyrimidin-7-yl)bicyclo[2.2.1]heptan-1-yl)-5-methylpyrazine-2-carboxamide] | 99.63 | extremely stable crystals with almost no increase in the related substances | +0.01% | 99.62 | hardly hygroscopic | 0.28 | 25.1 ± 8.4 | 2240 ± 750 | 5.3 ± 1.2 |  |  | 
